Test results published in ChEMBL document CHEMBL4831486, “Design, synthesis and biological evaluation of pleuromutilin-Schiff base hybrids as potent anti-MRSA agents in vitro and in vivo” (Eur J Med Chem, 2021).
≈ marks a conversion by molar mass, not a printed value.

Columns and labels:
Staphylococcus aureus [1] = test: Antibacterial activity against Methycillin-resistant Staphylococcus aureus ATCC 43300 assessed as inhibition of bacterial growth measured after 24 hrs by broth dilution method; assay type: functional
Staphylococcus aureus [2] = test: Bactericidal activity against Staphylococcus aureus AD3 assessed as inhibition of bacterial growth measured after 96 hrs by broth dilution method; assay type: functional
Staphylococcus aureus [3] = test: (§1) Antibacterial activity against methicillin-resistant Staphylococcus aureus ATCC 43300 assessed as post antibiotic effect by measuring time required for increase in 1 log10 CFU/ml of bacteria at 2X MIC incubated for 2 hrs followed by compound washout and measured after 20 hrs by time-kill assay (reference value: 2.44 hrs); assay type: functional
Staphylococcus aureus [4] = test: Antibacterial activity against Staphylococcus aureus AD3 assessed as inhibition of bacterial growth measured after 24 hrs by broth dilution method; assay type: functional
Staphylococcus aureus [5] = test: Antibacterial activity against Staphylococcus aureus 144 assessed as inhibition of bacterial growth measured after 24 hrs by broth dilution method; assay type: functional
Escherichia coli [6] = test: Bactericidal activity against Escherichia coli ATCC 25922 assessed as inhibition of bacterial growth measured after 96 hrs by broth dilution method; assay type: functional
Escherichia coli [7] = test: Antibacterial activity against Escherichia coli ATCC 25922 assessed as inhibition of bacterial growth measured after 24 hrs by broth dilution method; assay type: functional
Staphylococcus aureus [8] = test: Bactericidal activity against Staphylococcus aureus ATCC 29213 assessed as inhibition of bacterial growth measured after 96 hrs by broth dilution method; assay type: functional
Staphylococcus aureus [9] = test: Antibacterial activity against methicillin-resistant Staphylococcus aureus ATCC 43300 infected in neutropenic CD1 mouse model of thigh infection assessed as reduction in bacterial colony forming unit in thigh at 20 mg/kg, iv qd measured after 24 hrs relative to control; assay type: functional
Staphylococcus aureus [10] = test: Bactericidal activity against Staphylococcus aureus 144 assessed as inhibition of bacterial growth measured after 96 hrs by broth dilution method; assay type: functional
Staphylococcus aureus [11] = test: Antibacterial activity against methicillin-resistant Staphylococcus aureus ATCC 43300 assessed as inhibition of bacterial growth measured after 8 passages at sub-MIC concentration incubated for 24 hrs by resistant development assay; assay type: functional
Staphylococcus aureus [12] = test: Antibacterial activity against Staphylococcus aureus ATCC 29213 assessed as inhibition of bacterial growth measured after 24 hrs by broth dilution method; assay type: functional
Staphylococcus aureus [13] = test: as §1, with “4X” for “2X”; assay type: functional
Staphylococcus aureus [14] = test: Bactericidal activity against Methycillin-resistant Staphylococcus aureus ATCC 43300 assessed as inhibition of bacterial growth measured after 96 hrs by broth dilution method; assay type: functional
HepG2 = test: Cytotoxicity against human HepG2 cells assessed as reduced cell viability at 4 ug/ml measured after 16 hrs by MTT assay; assay type: cell-based; details: hepg2, 16 h, dose 4 µg/ml
RAW264.7 [15] = test: Cytotoxicity against mouse RAW264.7 cells assessed as reduced cell viability at 4 ug/ml measured after 16 hrs by MTT assay relative to control; assay type: cell-based; details: raw264.7, 16 h, at 4 µg/mL
Staphylococcus aureus [16] = test: as §1, with “4X” for “2X”, “2.04” for “2.44”; assay type: functional
Staphylococcus aureus [17] = test: as §1, with “2.04” for “2.44”; assay type: functional
RAW264.7 [18] = test: Cytotoxicity against mouse RAW264.7 cells assessed as reduced cell viability at 4 ug/ml measured after 16 hrs by MTT assay; assay type: cell-based; details: raw264.7, 16 h, dose 4 µg/ml
Staphylococcus aureus [19] = test: Bactericidal activity against methicillin-resistant Staphylococcus aureus ATCC 43300 assessed as reduction in bacterial growth at 2X MIC measured for 24 hrs by time kill assay; assay type: functional; design: scale not given: the % may be the effect or the level left
Staphylococcus aureus [20] = test: as §1, with “2.51” for “2.44”; assay type: functional
Staphylococcus aureus [21] = test: as §1, with “4X” for “2X”, “2.51” for “2.44”; assay type: functional
Staphylococcus aureus [22] = test: Bactericidal activity against methicillin-resistant Staphylococcus aureus ATCC 43300 assessed as reduction in bacterial growth at 4X MIC measured for 24 hrs by time kill assay; assay type: functional; design: scale not given: the % may be the effect or the level left

Compound	MIC (Staphylococcus aureus [1]) [µg/mL]	MBC (Staphylococcus aureus [2]) [µg/mL]	MIC (Staphylococcus aureus [4]) [µg/mL]	MIC (Staphylococcus aureus [5]) [µg/mL]	MBC (Escherichia coli [6]) [µg/mL]	MIC (Escherichia coli [7]) [µg/mL]	MBC (Staphylococcus aureus [8]) [µg/mL]	MBC (Staphylococcus aureus [10]) [µg/mL]	MIC (Staphylococcus aureus [12]) [µg/mL]	MBC (Staphylococcus aureus [14]) [µg/mL]	Activity (HepG2)	Activity (RAW264.7 [18])	also measured
C=C[C@]1(C)C[C@@H](OC(=O)CSCCN(CC)CC)[C@]2(C)[C@H](C)CC[C@]3(CCC(=O)[C@H]32)[C@@H](C)[C@@H]1O [TIAMULIN]	0.5 (≈ 1.01 µM)	2 (≈ 4.05 µM)	1 (≈ 2.03 µM)	1 (≈ 2.03 µM)	> 64	> 64	1 (≈ 2.03 µM)	2 (≈ 4.05 µM)	1 (≈ 2.03 µM)	1 (≈ 2.03 µM)	–	–	Time (Staphylococcus aureus [3]): 1.72 h; Activity (Staphylococcus aureus [9]): -1.4 log10CFU/ml; MIC (Staphylococcus aureus [11]): 32 µg/mL (≈ 64.8 µM); Time (Staphylococcus aureus [13]): 2.14 h
C=C[C@]1(C)C[C@@H](OC(=O)CSc2nnc(C)n2/N=C/c2ccc(C)cc2)[C@]2(C)[C@H](C)CC[C@]3(CCC(=O)[C@H]32)[C@@H](C)[C@@H]1O	0.5 (≈ 0.843 µM)	4 (≈ 6.75 µM)	1 (≈ 1.69 µM)	2 (≈ 3.37 µM)	> 64	> 64	2 (≈ 3.37 µM)	4 (≈ 6.75 µM)	1 (≈ 1.69 µM)	1 (≈ 1.69 µM)	Non-Toxic	–	Activity (RAW264.7 [15]): 30%
C=C[C@]1(C)C[C@@H](OC(=O)CSc2nnc(C)n2/N=C/c2ccc(-c3ccccn3)cc2)[C@]2(C)[C@H](C)CC[C@]3(CCC(=O)[C@H]32)[C@@H](C)[C@@H]1O	0.25 (≈ 0.381 µM)	2 (≈ 3.05 µM)	0.5 (≈ 0.762 µM)	1 (≈ 1.52 µM)	> 64	> 64	1 (≈ 1.52 µM)	4 (≈ 6.1 µM)	0.5 (≈ 0.762 µM)	1 (≈ 1.52 µM)	Non-Toxic	Non-Toxic	Time (Staphylococcus aureus [16]): 4.27 h; Time (Staphylococcus aureus [17]): 4.06 h; Activity (Staphylococcus aureus [19]): 99.9%; Activity (Staphylococcus aureus [9]): -2.28 log10CFU/ml; MIC (Staphylococcus aureus [11]): 2 µg/mL (≈ 3.05 µM)
C=C[C@]1(C)C[C@@H](OC(=O)CSc2nnc(C)n2/N=C/c2ccc(O)cc2)[C@]2(C)[C@H](C)CC[C@]3(CCC(=O)[C@H]32)[C@@H](C)[C@@H]1O	0.25 (≈ 0.42 µM)	2 (≈ 3.36 µM)	0.5 (≈ 0.841 µM)	1 (≈ 1.68 µM)	> 64	> 64	2 (≈ 3.36 µM)	2 (≈ 3.36 µM)	0.5 (≈ 0.841 µM)	1 (≈ 1.68 µM)	Non-Toxic	Non-Toxic	Time (Staphylococcus aureus [20]): 2.55 h; Time (Staphylococcus aureus [21]): 3.22 h; Activity (Staphylococcus aureus [22]): 99.9%
C=C[C@]1(C)C[C@@H](OC(=O)CSc2nnc(C)n2/N=C/c2ccc(N(CC)CC)cc2)[C@]2(C)[C@H](C)CC[C@]3(CCC(=O)[C@H]32)[C@@H](C)[C@@H]1O	4 (≈ 6.15 µM)	16 (≈ 24.6 µM)	4 (≈ 6.15 µM)	4 (≈ 6.15 µM)	> 64	> 64	8 (≈ 12.3 µM)	8 (≈ 12.3 µM)	4 (≈ 6.15 µM)	4 (≈ 6.15 µM)	Non-Toxic	Non-Toxic	–
C=C[C@]1(C)C[C@@H](OC(=O)CSc2nnc(C)n2/N=C/c2ccc(N(C)C)cc2)[C@]2(C)[C@H](C)CC[C@]3(CCC(=O)[C@H]32)[C@@H](C)[C@@H]1O	0.5 (≈ 0.804 µM)	4 (≈ 6.43 µM)	1 (≈ 1.61 µM)	2 (≈ 3.22 µM)	> 64	> 64	2 (≈ 3.22 µM)	4 (≈ 6.43 µM)	0.5 (≈ 0.804 µM)	1 (≈ 1.61 µM)	Non-Toxic	Non-Toxic	–
C=C[C@]1(C)C[C@@H](OC(=O)CSc2nnc(C)n2/N=C/c2ccc(N3CCCC3)cc2)[C@]2(C)[C@H](C)CC[C@]3(CCC(=O)[C@H]32)[C@@H](C)[C@@H]1O	1 (≈ 1.54 µM)	4 (≈ 6.17 µM)	2 (≈ 3.09 µM)	2 (≈ 3.09 µM)	> 64	> 64	4 (≈ 6.17 µM)	4 (≈ 6.17 µM)	2 (≈ 3.09 µM)	2 (≈ 3.09 µM)	Non-Toxic	Non-Toxic	–
C=C[C@]1(C)C[C@@H](OC(=O)CSc2nnc(C)n2/N=C/c2ccc(C(F)(F)F)cc2)[C@]2(C)[C@H](C)CC[C@]3(CCC(=O)[C@H]32)[C@@H](C)[C@@H]1O	2 (≈ 3.09 µM)	8 (≈ 12.4 µM)	2 (≈ 3.09 µM)	4 (≈ 6.18 µM)	> 64	> 64	4 (≈ 6.18 µM)	8 (≈ 12.4 µM)	2 (≈ 3.09 µM)	4 (≈ 6.18 µM)	Non-Toxic	Non-Toxic	–
